Data on 13 compounds can be found in patent EP0603160A2, “Compositions for in-situ active compound assembly” (SCRIPPS CLINIC AND RESEARCH FOUNDATION, priority 1986, dated 1988).

For data set [1], the system named is Ox blood erythrocytes. Put plainly: Erythrocyte killing with or without 1% serum, light scattering. Type of data set: cell-based. Particulars: Bos taurus, 1 h, pH 6.6, 896 µM AOG, Decanal 0µM (Table 4), read-out: % cells killed (0% serum).
For data set [2], the system named is Ox blood erythrocytes. The description is as above. In kind it is cell-based. Particulars: Bos taurus, Erythrocyte, 1 h, pH 6.6; for mortality at 448 µM: Decanal 0, AOG maintained at 448 µM according to the text (Table 4). Here is the method: (§1) Ox blood erythrocytes were incubated for one hour in PBS at pH 6.6 in the presence or absence of 1% serum at 37°C. […] However, at 4-16 µM DIOG, the percentage of cells killed increased from 4.3 to 60.9. On the other hand, in the absence of serum, 7.2.% cells were killed even without the addition of DIOG, and a steady increase in killing occurred as the DIOG concentration increased, reaching 100% of cells killed at 8 µM.
The AOG concentration was maintained at a high level (448 µM) and the decanal concentration varied from 0-16 µM corresponding the previous DIOG concentration range. In this protocol, similar results were obtained for cells incubated in the absence of serum, but in the presence of 1% serum the curve was slightly displaced so that the cells appeared more protected as shown in Table 4.

Data set [3] relates to Ox blood erythrocytes. Put plainly: Erythrocyte killing with or without 1% serum, hemoglobin release. In kind it is cell-based. Particulars: Bos taurus, 1 h, read-out: cell killing measured by hemaglobin release, 1% Serum. As to the method:
as §1

For the next data set, the system named is S cerevisiae. Put plainly: Yeast growth in YPD medium with AOG and decanal. Type of data set: cell-based. The conditions noted are these: 24 hours. Here is the method:
The effect of the combination of AOG and decanal on yeast was also determined. S cerevisiae in YPD medium at cell densities of 10⁵-10⁶ cell/ml used as starting concentrations. When no reagents were added to the medium, the cell density increased about 90 fold in 24 hours. […] When 10 µg/ml decanal plus 44 µg/ml AOG were added in combination, all yeast died after 24 hours.

For a further data set, the system named is human erythrocytes. Put plainly: Erythrocyte lysis (light scattering, hemoglobin release, cell counts). In kind it is cell-based. Particulars: for time for which erythrocytes are stable: solutions containing either DAPG or CHD alone. Here is the method: The putative product shown in Reaction Scheme 1 is evidently cytotoxic, since a suspension of human erythrocytes in a solution containing both CHD and DAPG in phosphate buffered saline is 95% lysed or aggregated within 1-14 hours under physiological conditions (the precise time depending on the concentrations) whereas erythrocytes are stable for at least 24 hours in plain PBS, and also in solutions containing either DAPG or CHD alone. In addition, when erythrocytes are incubated with mixtures of CHD and DAPG, a substantial induction period is observed during which no lysis or aggregation occurs, due to the time lag in formation of the cytotoxic material. Whether lysis or aggregation results depends on relative concentration; excess CHD results in lysis, equimolar concentrations in aggregation. The cytotoxicity may be due to the formation of the polycation, analogous to the known antitumor activity of poly-(L-lysine); Arnold, L. J. Proc. Natl Acad Sci (supra).
For erythrocytes blood was collected and stored with KEDTA at 4°C and erythrocytes prepared within 48 hours by centrifuging three times in phosphate-buffered saline (PBS, pH 7.4). Suspensions containing 3 x 10⁷ cells/ml were prepared in PBS containing 1% EtOH, but no […] cations, and incubated at 37°C with the compounds or mixtures to be tested.
On the other hand, while a mixture of 28 µM AOG and 28 µM decanal (reagent grade, Aldrich Chemical Co.) results in less than 10% lysis within the same 20 minute time frame, as the time of incubation increases, lysis increases also, as indicated by hemoglobin release measured by (1) light absorption of the supernatant at 400 nm. (2) decrease of light scattering by the cells at 700 nm, and (3) direct cell counts using a microscope. […] Suspensions of 3.5 x 10⁷ cells/ml prepared as above in PBS (1% EtOH, no divalent cations, pH 7.4) were incubated at 37°C, and cell lysis was followed by observing the decrease in absorbance at 700 nm. For 0% lysis, A₇₀₀ is 1.0; 0.2 for 100% lysis).
The curves were calculated using a nonlinear least squares fitting algorithm (Arc, H, et al, Statistical Methods (1970) Harper & Row, pp. 100-111) and based on a modified Hill equation (Cantor, C.R. et al, supra) wherein percent hemolysis is calculated as 100% divided by (1+(K/C))^α [formula] . In this equation, K is the median effect concentration, C is the concentration of DIOG (or of decanal and AOG), and α is the Hill constant.

A further data set relates to HeLa cells. The experiment in a line: HeLa cell cytotoxicity, trypan blue exclusion. In kind it is cell-based, human. Particulars: for percentage of cells intact: 400 µM, each alone, two hours, Figure 5a; for HeLa cell toxicity: AOG or dodecanedial alone, Figure 5b. Here is the method: These cells were grown in suspension in Joklik's median supplemented with calf serum, centrifuged and then taken up into Dulbecco's modified Eagles medium (DMEM) without serum. Cell suspensions containing 2-4 x 10⁶ cell/ml in DMEM containing 1% ethanol were incubated at 37°C, with or without decanal. AOG, or combinations thereof. Cell membrane damage was measured by hand counting of cells using trypan blue exclusion as the criterion.

Another data set deals with Monilinia sp. The experiment in a line: Fungal growth on YPD medium. Particulars: 2 mM of either reagent alone. In kind it is cell-based. Here is the method: Similar results are obtained using Candida albicans, a human infective agent, as the target organism. […] Also, the growth of Monilinia sp, the causal agent in peach brown rot, is inhibited by the combination of the foregoing reagents, but not by either individually. No growth is observed after four days on YPD medium when 250 µM each of the pyridine-2-carboxaldehyde and 2-hydrazinopyridine are included.

The next data set concerns S. cerevisiae YP52. Put plainly: Growth inhibition of yeast by PC and HP in YPD medium, roller drum. Type of data set: cell-based. Particulars: each alone, concentrations below 2 mM, 20 hours at 30°C in YPD medium. As to the method: Pyridine-2-carboxaldehyde (PC) and 2-hydrazino-pyridine (HP) are each alone nontoxic to S. cerevisiae YP52 yeast at concentrations below 2 mM when provided over 20 hours at 30°C in YPD medium in a roller drum. However, when supplied together, these compounds are capable of inhibiting the growth of S. cerevisiae YP52 at 30 °C in YPD. When placed together in the medium at concentrations of 1 mM + 1 mM and at 0.5 mM + 0.5 mM. substantial inhibition occurs. The adduct. pyridino-2-carboxaldehyde (2-pyridyl hydrazone) (PCPH) of the formula: [drawing 25] is a chelator and has a structural similarity to 2,2': 6',2'' terpyridine which is a known cytotoxin (McFadyen et al, J Med Chem (1985) 28:1113-1116). The second order rate constant for this reaction is 2 l/mol-sec at 37 °C, pH6, in phosphate-buffered saline.

The test system of data set [4] is S. typhimurium strain 14028R. The experiment in a line: Suspension culture CFU at pH 5 versus pH 7.4. Particulars: NFZ alone at 10 µM; 20 hours at 37°C in PBS, 1% DMSO. In kind it is cell-based. Here is the method: This selectivity was also shown in suspension cultures when S. typhimurium strain 14028R was incubated for 20 hours at 37°C in PBS at either pH 5 or pH 7.4 containing 1% DMSO. When no drugs were added, the culture contained 8 x 10⁶ colony forming units (CFU)/ml for pH 5 and 1.5 x 10⁷ CFU/ml for pH 7.4. The self assembling drugs tested in this instance were semicarbazide (SC), […] (NFA) and their reaction product nitrofurazone (NFZ). Either the […] product, or mixtures of various concentrations of the precursors NC + NA were added after inoculation of the medium. While the maximum toxic selectivity (the ratio of CFU/ml at pH 7.4 as compared to CFU/ml at pH 5) observed for, NFZ alone, at 10 µM was about 100, a mixture of 1500 µM SC + 7 µM NFA gave a toxic selectivity ratio of over 8000.

Another data set relates to S. typhimurium. The experiment in a line: Filter disk growth inhibition on agar LB plates at pH 7.4 and pH 5. In kind it is cell-based, Salmonella typhimurium. The conditions noted are these: 20 nanomoles on filter disk. From the text:
The formation of the foregoing chelate is also effective in inhibiting the growth of Salmonella typhimurium. This inhibition can be tested using agar disks or in culture suspension. The effect of the formation of chelate can be studied in this regard by conducting the experiments at pH 5 and pH 7.4; at pH 5 the formation of the chelate is encouraged while at […] the reaction rate is much slower.
The inhibition was spread between the disks rather than circling each disk as was the case for the PCPH inhibition. Thus, control of pH is a selective factor in controlling the self-assembly of the cytotoxic chelator.

In a further data set the test system is Erythrocytes. Put plainly: Antidote to self assembly, erythrocyte lysis. Type of data set: cell-based. As to the method:
In this example, cyclohexanone is used as an antidote to prevent the assembly of AOG plus decanal to produce the biologically active agent DIOG, which was described in a previous example. Erythrocytes, prepared as above, were exposed to 20 µM AOG plus 20 µM decanal.

The conditions of data set [5]: J Pharm Sci (1971) 60:1128-1131; cited from earlier work.
For a further data set, the system named is some tumors. Particulars: on a weight basis; Arnold et al, Proc Natl Acad Sci USA (1979); cited from earlier work.

Read-outs that look alike come from different tables or passages of the source.

Regarding `CCCCCCCCNC(=N)NN` [AOG, N-amino-N'-1-octyl guanidine], the mortality at 896 µM in the data set on Ox blood erythrocytes [1] is 6.4%; in the data set on Ox blood erythrocytes [2] (896 µM AOG, Decanal 0µM (Table 4), read-out: % cells killed (1% serum)) it was 1.3%. Also, the mortality at 448 µM in the data set with Ox blood erythrocytes [2] (read-out: % cells killed (0% serum)) and in the data set with Ox blood erythrocytes [2] (read-out: % cells killed (1% serum)) was 0% in each case. Besides, the hemolysis at 896 µM with Ox blood erythrocytes [3] (pH 6.6, 896 µM AOG, Decanal Concentration 0 (Table 5)) was 0%. For the same compound, the hemolysis at 448 µM with Ox blood erythrocytes [3] (pH 6.6, Decanal Concentration 0, 448 µM AOG according to the text (Table 5), comma separates duplicates) worked out at 0%. Also, the “increase in cell density” value with S cerevisiae (88 µg/ml AOG) is “threefold increase”. In the data set with human erythrocytes (Homo sapiens, Erythrocyte, 400 min, pH 7.4, 28 µM, 100 µM or 200 µM AOG alone, after more than 400 minutes, Figure 2), this compound came in with a hemolysis at 28 µM of less than 5%. For the same compound, in the data set with human erythrocytes (either alone at 100 µM), the lysis entry was “did not result in any observable lysis”. Further, the “percentage of cells intact” value in the data set with HeLa cells was “considerably less dramatic decreases”. Besides, the HeLa cell toxicity result with HeLa cells is reported as “neither is very toxic alone”.
Compound `O=C1CCC(=O)CC1` [CHD, cyclohexane-1,4-dione] registered a hemolysis at 60000 µM in the data set with human erythrocytes (Homo sapiens, Erythrocyte, pH 7.4, 60 mM CHD alone, after 24 hours) of 18%. Moreover, the “time for which erythrocytes are stable” value in the data set on human erythrocytes is reported as “at least 24 hours”.
With `NNC(=Nc1ccccc1)NN` [DAPG, 1,2-diamino-3-phenyl guanididium iodide], the hemolysis at 3000 µM in the data set with human erythrocytes (Homo sapiens, Erythrocyte, pH 7.4, 3 mM DAPG alone, after 24 hours) is 18%. In the data set on human erythrocytes, the “time for which erythrocytes are stable” value was “at least 24 hours”.
Regarding `O=CCCCCCCCCC=O` [DDD, decanedialdehyde, CHO(CH₂)₈CHO], the lysis result in the data set with human erythrocytes (either alone at 100 µM) is on record as “did not result in any observable lysis”.
Consider `NNc1ccccn1` [HP, 2-hydrazino-pyridine], for which the “growth of Monilinia sp” value with Monilinia sp is listed as “substantial growth”. Besides, the “toxicity to S. cerevisiae YP52” value in the data set with S. cerevisiae YP52 was “nontoxic”.
For `NC(=O)N/N=C/c1ccc([N+](=O)[O-])o1` [NFZ, nitrofurazone], the “maximum toxic selectivity (the ratio of CFU/ml at pH 7.4 as compared to CFU/ml at pH 5)” value in data set [4] is on record as “about 100”.
With `O=Cc1ccccn1` [PC, Pyridine-2-carboxaldehyde], the “growth of Monilinia sp” value in the data set on Monilinia sp is “substantial growth”. In addition, the “toxicity to S. cerevisiae YP52” value in the data set with S. cerevisiae YP52 was “nontoxic”.
`C(=NNc1ccccn1)c1ccccn1` [PCPH, pyridino-2-carboxaldehyde (2-pyridyl hydrazone)]: the “growth inhibition of S. typhimurium” value with S. typhimurium (pH 5) and in the data set on S. typhimurium (pH 7.4) was “inhibited growth” each time.
Consider `O=C1CCCCC1` [cyclohexanone], for which the lysis entry is listed as “do not give lysis” with Erythrocytes (20 mM cyclohexanone plus 10 µM AOG alone, no decanal); “Extensive lysis” with Erythrocytes (cells first exposed to 20 µM AOG for 2 hours, then 20 µM decanal and 20 mM cyclohexanone); “extensive lysis” in the data set on Erythrocytes (pretreatment 2 hours with 20 mM cyclohexanone alone, then 20 µM AOG plus 20 µM decanal); “only slow lysis” in the data set with Erythrocytes (pretreatment 2 hours with 20 mM cyclohexanone plus 20 µM AOG, then 20 µM decanal added).
Take `CCCCCCCCCC=O` [decanal]: the “increase in cell density” value with S cerevisiae (20 µg/ml decanal) was found to be 11 fold. Moreover, the lysis entry in the data set with human erythrocytes (28 µM or 80 µM decanal alone, after more than 400 minutes, Figure 2) is given as “less than 5%”. In addition, the “percentage of cells intact” value in the data set with HeLa cells is “considerably less dramatic decreases”.
`O=CCCCCCCCCCCC=O` [dodecanedial]: the HeLa cell toxicity result with HeLa cells was “neither is very toxic alone”.
In the case of `CN(Cc1cnc2nc(N)nc(N)c2n1)c1ccc(C(=O)N[C@@H](CCC(=O)O)C(=O)O)cc1` [methotrexate], the “half-life of the drug in serum” value in [5] is given as “about 2 hours”.
Take “poly-(L-lysine) [poly-(L-lysine) of Mr 3 kd]”: the “toxicity relative to poly-(L-lysine) having Mr of 70 kd” value with some tumors was “less than 1/20”.
